Test results: patent publication US20160319277A1, “METHODS OF IMPROVED PROTEIN PRODUCTION USING MIRNAs AND SIRNAs” (THE JOHNS HOPKINS UNIVERSITY, priority 2015, published 2016)

Legend:
[1] = system: T-REx-293-NTSR1-GFP cells; test: High-throughput human miRNA mimic library screen, image-based per cell green fluorescence (NTSR1-GFP expression); details: per cell green fluorescence intensity; for MAD-based z-score: 72 h after transfection plus 24 h tetracycline induction
Procedure: T-REx-293-NTSR1-GFP cells were screened with a miRNA mimic library (Qiagen) based on Sanger miRBase™ 13.0 and consisting of 875 miRNAs mimics. For transfection, 0.8 pmol of each mimic was spotted to 384 well plate wells (Corning) and 20 μL of serum-free DMEM containing 0.1 μL of Lipofectamine™ RNAiMax (Life Technologies) was then added to each well. This lipid-miRNA mixture was incubated at ambient temperature for 30 min prior to adding 2000 cells in 20 μL of DMEM containing 20% certified FBS (Gibco). Transfected cells were incubated at 37° C. in 5% CO2 for 72 hours and induced with 1 μg/mL tetracycline for 24 hours for NTSR1-GFP expression. Cells were then fixed with 2% paraformaldehyde (Electron Microscopy Sciences), stained with Hoechst™ 33342 (Life Technologies) for 45 minutes and gently washed with PBS. Plates were imaged with an ImageXpress Micro XL™ (Molecular Devices). Total cell number and per cell green fluorescence intensity were calculated using MetaXpress™ software (Molecular Devices) employing the Multi-Wavelength Cell Scoring™ application module. […] A full column of positive control siRNA targeting GFP (GFP-22 siRNA, Qiagen) was also used as on-plate reference for transfection efficiency. The median absolute deviation (MAD)-based z-score was calculated for each sample.

HEK-CMV-Luc2-Hygro cells [2] = test: Effect of exogenous polyamines on luciferase expression and cell growth; details: for effect of higher concentrations on luciferase expression and viable cell: concentrations above the optimum; for concentration with inhibitory effects: culture medium with ruminant serum
Procedure: FIG. 13: Effect of exogenous polyamines on luciferase expression and cell growth. Two different passages of cells were treated with the indicated concentrations of polyamines and each biological sample was measured in triplicates. Error bars represent SEM.
To further verify this, the impacts of exogenously added polyamines on luciferase expression level and viable cell number were determined.

HEK-CMV-Luc2-Hygro cells [3] = test: High-throughput genome-wide siRNA screen and validation screen for luciferase expression; type: cell-based, human; details: for Viable cell density (%) / per cell luciferase yield (%): Table 4, negative control = 100%; for Viable cell density (%) / per cell luciferase yield (%) / per_cell / VIA: primary screen, 72 h; for per_cell / VIA: Table 3; for per_cell: per cell luciferase yield relative to negative control; for VIA: viable cell density as % of negative control
Outline: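 HEK cells with CMV-driven luciferase were reverse-transfected with 0.8 pmol siRNA per well (3 per gene) via RNAiMax and grown 72 h at 37 °C. Duplicate wells read for luciferase (ONE-Glo) and viability (CellTiter-Glo). Values given as % of plate negative-control median with MAD-based z-scores; hits with ≥2 siRNAs at z>3 retested using 3 new siRNAs.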

[4] = Table 6, polyamine pathway gene siRNAs

## CUAUACAGUCUACUGUCUUUCC (listed as RNA, chemistry not given here; listed as Homo sapiens) [let-7f-2-3p, human miRNA mimic]
[1]
  Signal relative to negative control (%): 178%
  MAD-based z-score: 3.0

## AACUGGCCCUCAAAGUCCCGCU (listed as RNA, chemistry not given here; listed as Homo sapiens) [miR-193b-3p, human miRNA mimic]
[1]
  Signal relative to negative control (%): 166%
  MAD-based z-score: 2.5

## UGGUUGUAGUCCGUGCGAGAAUA (listed as RNA, chemistry not given here; listed as Homo sapiens) [miR-1974, human miRNA mimic]
[1]
  Signal relative to negative control (%): 201%
  MAD-based z-score: 3.6

## ACUCUUUCCCUGUUGCACUAC (listed as RNA, chemistry not given here; listed as Homo sapiens) [miR-130b-5p, human miRNA mimic]
[1]
  Signal relative to negative control (%): 178%
  MAD-based z-score: 2.9

## AAACCUGUGUUGUUCAAGAGUC (listed as RNA, chemistry not given here; listed as Homo sapiens) [miR-649, human miRNA mimic]
[1]
  Signal relative to negative control (%): 150%
  MAD-based z-score: 2.0

## GCUACUUCACAACACCAGGGCC (listed as RNA, chemistry not given here; listed as Homo sapiens) [miR-138-1-3p, human miRNA mimic]
[1]
  Signal relative to negative control (%): 167%
  MAD-based z-score: 2.5

## AGGAGGCAGCGCUCUCAGGAC [miR-650]
[1]
  Signal relative to negative control (%): 163%
  MAD-based z-score: 2.5

## GUGUGUGGAAAUGCUUCUGC (listed as RNA, chemistry not given here; listed as Homo sapiens) [miR-147a, human miRNA mimic]
[1]
  Signal relative to negative control (%): 168%
  MAD-based z-score: 2.6

## UGAGGUAGUAGGUUGUAUGGUU (listed as RNA, chemistry not given here; listed as Homo sapiens) [let-7c-5p, human miRNA mimic]
[1]
  Signal relative to negative control (%): 168%
  MAD-based z-score: 2.6

## AACUGGCCUACAAAGUCCCAGU (listed as RNA, chemistry not given here; listed as Homo sapiens) [miR-193a-3p, human miRNA mimic]
[1]
  Signal relative to negative control (%): 156%
  MAD-based z-score: 2.3

## ACAGAUUCGAUUCUAGGGGAAU (listed as RNA, chemistry not given here; listed as Homo sapiens) [miR-10b-3p, human miRNA mimic]
[1]
  Signal relative to negative control (%): 162%
  MAD-based z-score: 2.4

## CUGUGCGUGUGACAGCGGCUGA [miR-210-3p]
[1]
  Signal relative to negative control (%): 183%
  MAD-based z-score: 3.2

## CAUCCCUUGCAUGGUGGAGGG (listed as RNA, chemistry not given here; listed as Homo sapiens) [miR-188-5p, human miRNA mimic]
[1]
  Signal relative to negative control (%): 177%
  MAD-based z-score: 2.9

## UGAGUGCCGGUGCCUGCCCUG (listed as RNA, chemistry not given here; listed as Homo sapiens) [miR-1909-5p, human miRNA mimic]
[1]
  Signal relative to negative control (%): 169%
  MAD-based z-score: 2.6

## NCCCCN [putrescine]
HEK-CMV-Luc2-Hygro cells [2]; added to medium at 100 μM
  increase of luciferase expression: up to 40%
HEK-CMV-Luc2-Hygro cells [2]; addition at 50 μM
  enhanced growth: 10%
HEK-CMV-Luc2-Hygro cells [2]
  effect of higher concentrations on luciferase expression and viable cell: did not lead to further enhancement of luciferase production

## CUGCCAAUUCCAUAGGUCACAG (listed as RNA, chemistry not given here; listed as Homo sapiens) [miR-192-3p, human miRNA mimic]
[1]
  Signal relative to negative control (%): 148%
  MAD-based z-score: 2.0

## NCCCNCCCCNCCCN [spermine]
HEK-CMV-Luc2-Hygro cells [2]; at 10 μM
  increase in luciferase expression: 16%
HEK-CMV-Luc2-Hygro cells [2]
  effect of higher concentrations on luciferase expression and viable cell: caused reduction in both luciferase expression and viable cell
  concentration with inhibitory effects: > 20 µM

## UCCGUCUCAGUUACUUUAUAGC (listed as RNA, chemistry not given here; listed as Homo sapiens) [miR-340-3p, human miRNA mimic]
[1]
  Signal relative to negative control (%): 159%
  MAD-based z-score: 2.3

## CAGUGCAAUAGUAUUGUCAAAGC (listed as RNA, chemistry not given here; listed as Homo sapiens) [miR-301a-3p, human miRNA mimic]
[1]
  Signal relative to negative control (%): 176%
  MAD-based z-score: 2.9

## NCCCCNCCCN [spermidine]
HEK-CMV-Luc2-Hygro cells [2]; at 10 μM
  increase in cell growth: 24%
HEK-CMV-Luc2-Hygro cells [2]; at 20 μM
  increase in luciferase expression: 36%
HEK-CMV-Luc2-Hygro cells [2]
  concentration with inhibitory effects: > 100 µM

## 138 (CCCUCCUACUAUUACCCGUTT; chemistry not given here; listed as Homo sapiens) [compound 138]
HEK-CMV-Luc2-Hygro cells [3]
  Viable cell density (%): 96.869%
  per cell luciferase yield (%): 162.999%

## 107 (CCAUAUAUCCGAAUGACCATT; chemistry not given here; listed as Homo sapiens) [compound 107]
HEK-CMV-Luc2-Hygro cells [3]
  Viable cell density (%): 63.879%
  per cell luciferase yield (%): 256.443%

## 228 (GCCCUCUGUUGGAUAUCUATT; chemistry not given here; listed as Homo sapiens) [compound 228]
HEK-CMV-Luc2-Hygro cells [3]; [4]
  Luciferase activity (%): 45.6%
  Per cell luciferase yield (%): 63.2%
  Viable cell number (%): 72.1%

## 105 (GCGCAAGCUUAAGAACUUUTT; chemistry not given here; listed as Homo sapiens) [compound 105]
HEK-CMV-Luc2-Hygro cells [3]
  Viable cell density (%): 94.579%
  per cell luciferase yield (%): 170.349%

## 43 (GCUAAGUCUUUUCCACAGUTT; chemistry not given here; listed as Homo sapiens) [compound 43]
HEK-CMV-Luc2-Hygro cells [3]
  per_cell: 155.4
  VIA: 94.54

## 94 (AGAGGCUACUUUGAAAACATT; chemistry not given here; listed as Homo sapiens) [compound 94]
HEK-CMV-Luc2-Hygro cells [3]
  Viable cell density (%): 66.938%
  per cell luciferase yield (%): 227.583%

## 69 (CCCUCCUACUAUUACCCGUTT; chemistry not given here; listed as Homo sapiens) [compound 69]
HEK-CMV-Luc2-Hygro cells [3]
  per_cell: 163
  VIA: 96.87
